This is an account of results in patent US11638709B2, “Rucaparib, Talazoparib, Veliparib, Olaparib and AZD 2461 for treating impaired skin wound healing” (AKRIBES BIOMEDICAL GMBH, priority 2017, dated 2023).

Experiment [1] has as its system primary human dermal fibroblasts (HDF). The experiment in a line: Primary human dermal fibroblast (HDF) proliferation assay (2D) with or without wound exudate. It is filed as cell-based. The settings on record: for fibroblast proliferation in the absence of WE: FIG. 11, 2D fibroblast culture without WE (control); for wound exudate-induced inhibition of fibroblast proliferation: FIG. 20, with wound exudate; for HDF proliferation with wound exudate #78, plus PDGF / HDF proliferation with wound exudate #78: FIG. 15; for HDF proliferation with wound exudate #78, plus PDGF: compound + PDGF 20 ng/ml in medium + WE #78; for HDF proliferation with wound exudate #78: compound in medium + WE #78; for effect on PDGF-induced induction of proliferation in the absence of WE: with PDGF. Here is the method: (§1) Primary human dermal fibroblasts (HDF) were purchased from CELLnTEC, Bern. They were routinely grown in Dulbecco's modified Eagle's medium (DMEM) containing 10% FCS, 2 mM glutamine, and 100 U/ml penicillin/100 μg/ml streptomycin. Media, antibiotics, and glutamine were bought from Lonza. The cells were used at passage 5-15. Cells were trypsinized and seeded at 5000 cells/well in 200 μl into the inner wells of 96-well plates. The outer wells were loaded with sterile water. The cells were allowed to adhere overnight and then incubated for 72 hours at 37° C. under the following conditions: graded compound concentrations or 20 ng/ml PDGF-BB (Tonbo Biosciences) in the absence or presence of different dilutions of sterile-filtered WE in medium. For control samples, 200 μl medium was added instead of specific stimuli. Alternatively, the cells were seeded into 384-well plates at 2500 cells/well directly together with test compounds or growth factors and WE or medium in a total volume of […].
(§2) At the end of the 72-hour incubation period, supernatants were removed for the determination of IL-1ß, and the cells were fixed with 4% paraformaldehyde (Morphisto) for 15 minutes at room temperature and washed 3 times with PBS. A control plate was fixed after the overnight adherence of the cells (day 1) to determine the starting cell number.
Total cellular protein was determined as a measure of cell number by staining the fixed cells with sulforhodamine B (SRB, Sigma). A 0.4% SRB solution in 1% acetic acid was added to the wells for 30 minutes. The wells were then washed with 1% acetic acid until the wash solution remained colorless. […] The average absorbance of the sample representing the day 1 starting cell number (for 96-well plates) was subtracted from the absorbance values of the WE-treated cells.
All experiments were carried out in triplicate for each sample and concentration, and means±standard deviation (SD) were used for the evaluation of the experiment. Results are expressed as percentage of control values for unstimulated cells.
(§3) Low molecular weight compounds (see list in Table 1) were dissolved in DMSO (Bioreagent for cell culture, Sigma) at 10 mM or 100 mM and diluted at least 1:1000 in medium for cellular assays (final DMSO concentration ≤0.1%).
(§4) Cells were incubated with compounds for 72 hours in proliferation assays and up to 8 days for FDM assay (refreshed after 4 days). When compounds were tested for their effect on WE stimulation, the incubation of cells with compounds was started and ended simultaneously with WE-incubation.

For experiment [2] the test system is unchanged. The experiment in a line: Fibroblast-derived matrix (FDM) formation assay (3D) with wound exudate. The format is cell-based. To be noted: for 3D fibroblast-derived matrix formation assay, activity: FIGS. 9 and 10; for 3D fibroblast culture (FDM formation), effect of PARP inhibitors: FIG. 7, WE from patient #78. Here is the method:
HDF cells were seeded at 5000 cells/well on day −3 into 96-well tissue culture plates (1250 cells/well for 384-well plates), which had been pre-coated for 1 hour at 37° C. with 0.2% gelatin solution (Sigma). When the cells reached confluence (=day 0), a matrix promoting supplement (vitamin C: 2-phospho-L-ascorbic acid trisodium salt, 100 μg/ml; Sigma) was added together with test samples containing PDGF-BB, TGF-ß1 or graded concentrations of compounds −/+WE as described for the HDF proliferation assay. After 4 days, medium was replaced by fresh vitamin C—and stimulus—as well as compound-containing medium, maintaining the conditions initiated on day 0. TGF-ß1 and PDGF-BB were included as positive controls to promote FDM formation and cell growth, respectively. After a total incubation time of 8 days, FDM production was measured in fixed cultures via SRB staining and evaluated as described above. In some cases, the experiment was stopped and evaluated already on day 4.
as §3, §4

For experiment [3], the system named is alpha-smooth muscle actin (α-SMA) in human dermal fibroblasts. Nature of the experiment: Immunolocalization of alpha-smooth muscle actin in 2D HDF culture. It is filed as cell-based. The settings on record: FIG. 16; absence of wound exudate; TGF-ß 20 ng/ml. How it is done: as §1
After fixation with paraformaldehyde, the cells were incubated for 1 hour at room temperature with a monoclonal mouse-anti-human antibody against alpha-smooth muscle actin (α-SMA) from e-Bioscience, washed 3 times with PBS and developed with an Alexa Fluor-labelled donkey-anti-mouse IgG (Molecular Probes). […]

For experiment [4], the system named is IL-1ß secretion by primary human dermal fibroblasts. The experiment in a line: IL-1ß secretion in the HDF proliferation assay with wound exudate (ELISA). The format is cell-based. The settings on record: FIG. 20. How it is done:
as §2
IL-1ß levels were determined with a commercial ELISA kit. The amount of IL-1ß contained in the wound exudate added to the cells was subtracted from the total IL-ß in the supernatants in order to determine the cytokine secreted by the cells.

The target of a further experiment is PARP1 (Homo sapiens, UniProt P09874). The settings on record: cited from earlier work.
A further experiment has as its system PARP. To be noted: cited from earlier work.

PARP1, sequence (P09874 whole entry, species assumed): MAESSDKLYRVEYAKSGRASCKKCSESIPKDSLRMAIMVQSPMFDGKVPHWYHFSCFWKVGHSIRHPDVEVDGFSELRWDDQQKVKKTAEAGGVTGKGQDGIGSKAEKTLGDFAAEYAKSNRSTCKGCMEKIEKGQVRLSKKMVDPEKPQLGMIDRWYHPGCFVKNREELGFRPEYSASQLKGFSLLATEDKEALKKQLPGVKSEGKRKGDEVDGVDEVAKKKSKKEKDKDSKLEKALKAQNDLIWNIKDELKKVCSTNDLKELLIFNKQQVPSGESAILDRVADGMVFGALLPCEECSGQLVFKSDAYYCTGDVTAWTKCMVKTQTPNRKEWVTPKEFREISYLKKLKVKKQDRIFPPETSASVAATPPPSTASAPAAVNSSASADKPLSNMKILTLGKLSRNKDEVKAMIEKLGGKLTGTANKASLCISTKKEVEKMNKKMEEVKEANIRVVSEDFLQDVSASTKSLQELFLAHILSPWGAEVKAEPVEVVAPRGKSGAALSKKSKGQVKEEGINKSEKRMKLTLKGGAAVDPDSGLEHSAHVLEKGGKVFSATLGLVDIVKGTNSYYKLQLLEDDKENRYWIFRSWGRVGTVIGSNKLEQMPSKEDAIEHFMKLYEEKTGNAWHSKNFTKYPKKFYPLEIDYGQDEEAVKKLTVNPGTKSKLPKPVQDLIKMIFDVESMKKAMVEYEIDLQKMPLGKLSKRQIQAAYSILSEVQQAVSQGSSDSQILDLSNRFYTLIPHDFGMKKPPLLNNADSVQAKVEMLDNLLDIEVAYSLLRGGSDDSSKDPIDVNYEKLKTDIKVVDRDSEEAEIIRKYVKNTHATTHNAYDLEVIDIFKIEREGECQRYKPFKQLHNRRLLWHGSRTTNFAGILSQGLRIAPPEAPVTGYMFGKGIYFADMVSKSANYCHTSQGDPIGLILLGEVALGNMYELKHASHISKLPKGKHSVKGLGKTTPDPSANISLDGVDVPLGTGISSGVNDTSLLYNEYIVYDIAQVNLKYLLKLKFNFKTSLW

Turning to `CN(C)CC(=O)Nc1ccc2[nH]c(=O)c3ccccc3c2c1.Cl` [PJ-34], the “2D fibroblast culture (HDF proliferation), effect of PARP inhibitors” value (“2D fibroblast culture … of PARP inhibitors” below) in experiment [1] (FIG. 9, WE from patient #43) is “either inactive or exhibit a very weak activity”; in experiment [1] (FIG. 10, WE from patient #78), “either inactive or exhibit a very weak activity”. In addition, the “2D fibroblast culture, PARP inhibitor effect ± dexamethasone ± Vit. C” value in experiment [1] (FIG. 12, WE from patient #78) is listed as “only a weak effect”; in experiment [1] (FIG. 13, WE from patient #43), “only a weak effect”. Besides, in experiment [2], the “3D fibroblast-derived matrix formation assay, activity” value was “either inactive or only weakly active”.

For the molecule `Oc1cccc2c(O)nccc12` [1,5-IQD, 1,5-Isoquinolinediol], the “2D fibroblast culture … of PARP inhibitors” value in experiment [1] (FIG. 9, WE from patient #43) was “either inactive or exhibit a very weak activity”; in experiment [1] (FIG. 10, WE from patient #78) it was “either inactive or exhibit a very weak activity”. The “3D fibroblast-derived matrix formation assay, activity” value in experiment [2] is “either inactive or only weakly active”.

Turning to TGF-ß: Transforming growth factor beta, the “staining for myofibroblast marker alpha-smooth muscle actin (α-SMA)” value in experiment [3] is “increases the staining for the myofibroblast marker alpha-smooth muscle actin (α-SMA)”.

`COC1CCN(C(=O)c2cc(Cc3n[nH]c(=O)c4ccccc34)ccc2F)CC1` [AZD-2461]: the “2D fibroblast culture … of PARP inhibitors” value in experiment [1] (FIG. 8, WE from patient #78) was “strong and consistent positive effect”. Moreover, in experiment [1], the “fibroblast proliferation in the absence of WE” value is “either no effect on fibroblast proliferation in the absence of wound exudate, or only a marginal effect” and the “wound exudate-induced inhibition of fibroblast proliferation” value (“wound exudate-induced inhibition” for short) is “enhanced cell proliferation”. Also, the “wound exudate-induced IL-1ß secretion” value in experiment [4] was “reducing IL-1ß secretion”. For the same molecule, the “3D fibroblast culture (FDM formation), effect of PARP inhibitors” value (from here on “3D fibroblast culture … of PARP inhibitors”) in experiment [2] is “strong and consistent positive effect”.

For `CNCc1ccc(-c2[nH]c3cc(F)cc4c3c2CCNC4=O)cc1` [Rucaparib], in experiment [1] (FIG. 8, WE from patient #78), the “2D fibroblast culture … of PARP inhibitors” value was “strong and consistent positive effect”. The “2D fibroblast culture … of PARP inhibitors” value in experiment [1] (FIG. 9, WE from patient #43) was “strong and consistent positive effect”. Besides, in experiment [1] (FIG. 10, WE from patient #78), the “2D fibroblast culture … of PARP inhibitors” value is “strong and consistent positive effect”. For the same molecule, in experiment [1], the “fibroblast proliferation in the absence of WE” value is given as “either no effect on fibroblast proliferation in the absence of wound exudate, or only a marginal effect”; the “HDF proliferation with wound exudate #78, plus PDGF” value was “even further enhanced by the addition of PDGF”; the “HDF proliferation with wound exudate #78” value is “dose-dependent increase of HDF proliferation”; the “wound exudate-induced inhibition” value was “enhanced cell proliferation”. Further, in experiment [1] (no WE), the “effect on PDGF-induced induction of proliferation in the absence of WE” value was “either had no effect on PDGF-induced induction of proliferation or showed inhibition of the PDGF effect”. For the same molecule, the “wound exudate-induced IL-1ß secretion” value in experiment [4] is “reducing IL-1ß secretion”. Besides, in experiment [2], the “3D fibroblast culture … of PARP inhibitors” value was “strong and consistent positive effect”.

Turning to “2-phospho-L-ascorbic acid trisodium salt [vitamin C]”, the “2D fibroblast culture, enhancement of PARP inhibitor compound effects by co-agent” value is given as “synergistically enhance the PARP inhibitor compound effects” in experiment [1] (FIG. 12, WE from patient #78, dexamethasone 3 nM, vitamin C 100 μg/ml) and “synergistically enhance the PARP inhibitor compound effects” in experiment [1] (FIG. 13, WE from patient #43).

Take `CN(C)Cc1ccc(-c2nc3cccc4c3n2CCNC4=O)cc1` [AG-14351]: on PARP1, the “inhibits PARP1 with an 1050” value is on record as “low nM range”. In addition, the “2D fibroblast culture … of PARP inhibitors” value in experiment [1] (FIG. 8, WE from patient #78) is “only a very weak effect at a concentration of 10 μM”. For the same molecule, in experiment [1], the “wound exudate-induced inhibition” value was “enhanced cell proliferation”. Also, the “wound exudate-induced IL-1ß secretion” value in experiment [4] was “reducing IL-1ß secretion”. Also, in experiment [2], the “3D fibroblast culture … of PARP inhibitors” value is reported as “only a very weak effect at a concentration of 10 μM”.

As for `O=C(c1cc(Cc2n[nH]c(=O)c3ccccc23)ccc1F)N1CCN(C(=O)C2CC2)CC1` [Olaparib], the “2D fibroblast culture … of PARP inhibitors” value in experiment [1] (FIG. 8, WE from patient #78) is “strong and consistent positive effect”. Besides, in experiment [1], the “fibroblast proliferation in the absence of WE” value is “either no effect on fibroblast proliferation in the absence of wound exudate, or only a marginal effect”; the “HDF proliferation with wound exudate #78, plus PDGF” value is reported as “even further enhanced by the addition of PDGF”; the “HDF proliferation with wound exudate #78” value is given as “dose-dependent increase of HDF proliferation”; the “wound exudate-induced inhibition” value was “enhanced cell proliferation”. The “effect on PDGF-induced induction of proliferation in the absence of WE” value in experiment [1] (no WE) was “either had no effect on PDGF-induced induction of proliferation or showed inhibition of the PDGF effect”. Besides, the “wound exudate-induced IL-1ß secretion” value in experiment [4] was “reducing IL-1ß secretion”. In addition, the “3D fibroblast culture … of PARP inhibitors” value in experiment [2] is “strong and consistent positive effect”.

As to `NC(=O)c1cccc(N)c1` [3-AB, 3-Aminobenzamide], the “2D fibroblast culture … of PARP inhibitors” value in experiment [1] (FIG. 9, WE from patient #43) was “either inactive or exhibit a very weak activity”; in experiment [1] (FIG. 10, WE from patient #78) it was “either inactive or exhibit a very weak activity”. Also, in experiment [1], the “wound exudate-induced inhibition” value was “did not show any of these effects”. Moreover, the “wound exudate-induced IL-1ß secretion” value in experiment [4] is “did not show any of these effects”. Moreover, in experiment [2], the “3D fibroblast-derived matrix formation assay, activity” value was “either inactive or only weakly active”.

On to `NC(=O)c1cccc2cn(-c3ccc([C@@H]4CCCNC4)cc3)nc12` [niraparib], for which the “2D fibroblast culture … of PARP inhibitors” value in experiment [1] (FIG. 8, WE from patient #78) was “does not show any activity”. For the same molecule, the “wound exudate-induced inhibition” value in experiment [1] was “did not show any of these effects”. Besides, the “wound exudate-induced IL-1ß secretion” value in experiment [4] is “did not show any of these effects”. Further, in the experiment with PARP, the “inhibits PARP with an 1050” value is listed as “low nM range”. Moreover, the “3D fibroblast culture … of PARP inhibitors” value in experiment [2] was “does not show any activity”.

B1: PDGF: Platelet-derived growth factor, protein growth factor (Tonbo Biosciences) (protein, UniProt P01127 82-190, looked up)
Platelet-derived growth …: SLGSLTIAEPAMIAECKTRTEVFEISRRLIDRTNANFLVWPPCVEVQRCSGCCNNRNVQCRPTQVQLRPVQVRKIEIVRKKPIFKKATVTLEDHLACKCETVAAARPVT
modifications: PDGF-BB homodimer
Take B1: the “HDF proliferation in the presence of WE #78” value in experiment [1] (FIG. 14, WE #78, veliparib 10 μM, talazoparib 1 μM, PDGF 20 ng/ml) is “has no effect”. Moreover, the “HDF proliferation in the absence of WE” value in experiment [1] (FIG. 14, no WE, veliparib 10 μM, talazoparib 1 μM, PDGF 20 ng/ml) is listed as “induces HDF proliferation”. In experiment [1], the “HDF proliferation with wound exudate #78” value is “inactive”.
